Values after ≈ are worked out from the molar mass of the structure shown. Where two headings read alike, the source gives them in different places.
What was measured:
Assay in all cases: Bacterial susceptibility testing, MIC by broth microdilution (CLSI)
Format in all cases: cell-based
E. coli ATCC25922 = details: Escherichia coli
Experimental: (§1) Minimal inhibitory concentrations (MIC) were determined by the broth microdilution method in accordance with the Clinical and Laboratory Standards Institute (CLSI) guidelines. In brief, organism suspensions were adjusted to a final inoculum between 3×10^5 and 7×10^5 colony-forming units (CFU)/mL. Drug dilutions and inocula were made in sterile, cation adjusted Mueller-Hinton Broth (Beckton Dickinson). In wells, an inoculum volume of 100 μL was mixed to 2 μL of DMSO with 2-fold serial dilutions of drug. All inoculated microdilution trays were incubated in ambient air at 35° C. for 18-24 h. Following incubation, the lowest concentration of the drug that prevented visible growth (OD600 nm<0.05) was recorded as the MIC. Performance of the assay was monitored by the use of laboratory quality-control strains and compounds with defined MIC spectrum, in accordance with CLSI guidelines.

K. pneumoniae ATCC13883 = details: Klebsiella pneumoniae
Experimental: as §1

P. aeruginosa 209 PAO1 = details: Pseudomonas aeruginosa
Experimental: as §1

P. aeruginosa ATCC27835 = details: Pseudomonas aeruginosa
Experimental: as §1

[1] = ATCC25922, read-out: MIC E. coli ATCC25922
[2] = ATCC13883, read-out: MIC K. pneumoniae ATCC13883
[3] = PAO1, read-out: MIC P. aeruginosa 209 PAO1
[4] = ATCC27835, read-out: MIC P. aeruginosa ATCC27835
[5] = ATCC25922, broth microdilution, 35° C., 18-24 h, read-out: MIC E. coli ATCC25922
[6] = ATCC13883, broth microdilution, 35° C., 18-24 h, read-out: MIC K. pneumoniae ATCC13883
[7] = PAO1, broth microdilution, 35° C., 18-24 h, read-out: MIC P. aeruginosa 209 PAO1
[8] = ATCC27835, broth microdilution, 35° C., 18-24 h, read-out: MIC P. aeruginosa ATCC27835

Row | MIC (E. coli ATCC25922; [5]) [µg/mL] | MIC (K. pneumoniae ATCC13883; [6]) [µg/mL] | MIC (P. aeruginosa 209 PAO1; [7]) [µg/mL] | MIC (P. aeruginosa ATCC27835; [8]) [µg/mL] | Structure (SMILES) | MIC (E. coli ATCC25922; [1]) [µg/mL] | MIC (K. pneumoniae ATCC13883; [2]) [µg/mL] | MIC (P. aeruginosa 209 PAO1; [3]) [µg/mL] | MIC (P. aeruginosa ATCC27835; [4]) [µg/mL]
1 |  |  |  |  | C[C@H](O)c1nccn1[C@@H](/C=C/c1ccc(-c2ccc([C@H]3C[C@H](NS(C)(=O)=O)C3)cc2)cc1)CO [Compound 62, N-((1S,3r)-3-(4′-((S,E)-4-hydroxy-3-(2-((S)-1-hydroxyethyl)-1H-imidazol-1-yl)but-1-en-1-yl)-[1,1′-biphenyl]-4-yl)cyclobutyl)methanesulfonamide] | 1 (≈ 2.08 µM) | 0.5 (≈ 1.04 µM) | 1 (≈ 2.08 µM) | 2 (≈ 4.15 µM)
2 | 0.25 | 0.5 | 2 | 4 | CC(=O)O[C@@H]1C[C@H]1c1ccc(-c2ccc(/C=C/[C@@H](CO)n3ccnc3[C@H](C)O)cc2)cc1 [Compound 69, (1R,2S)-2-(4′-((S,E)-4-hydroxy-3-(2-((S)-1-hydroxyethyl)-1H-imidazol-1-yl)but-1-en-1-yl)-[1,1′-biphenyl]-4-yl)cyclopropyl acetate] |  |  |  | 
3 | 2 (≈ 4.33 µM) | 8 (≈ 17.3 µM) | 4 (≈ 8.67 µM) | 4 (≈ 8.67 µM) | C[C@H](O)c1nccn1[C@@H](/C=C/c1ccc(-c2ccc(C3CC(CNCCO)C3)cc2)cc1)CO (stereo partly drawn) [Compound 61, (S,E)-2-(2-((S)-1-hydroxyethyl)-1H-imidazol-1-yl)-4-(4′-(3-(((2-hydroxyethyl)amino)methyl)cyclobutyl)-[1,1′-biphenyl]-4-yl) but-3-en-1-ol] |  |  |  | 
4 | 8 (≈ 17.6 µM) | > 32 | 2 (≈ 4.41 µM) | 1 (≈ 2.2 µM) | C[C@H](O)c1nccn1[C@@H](/C=C/c1ccc(-c2ccc(OCC(N)(CO)CO)cc2)cc1)CO [Compound 74, 2-amino-2-(((4′-((S,E)-4-hydroxy-3-(2-((S)-1-hydroxyethyl)-1H-imidazol-1-yl)but-1-en-1-yl)-[1,1′-biphenyl]-4-yl)oxy)methyl)propane-1,3-diol] |  |  |  | 
5 | 0.5 (≈ 0.974 µM) | 1 (≈ 1.95 µM) | 2 (≈ 3.89 µM) | 4 (≈ 7.79 µM) | C[C@H](O)c1nccn1[C@@H](/C=C/c1ccc(-c2ccc(C3CC(C(=O)NCc4ncon4)C3)cc2)cc1)CO (stereo partly drawn) [Compound 53, N-((1,2,4-oxadiazol-3-yl)methyl)-3-(4′-((S,E)-4-hydroxy-3-(2-((S)-1-hydroxyethyl)-1H-imidazol-1-yl)but-1-en-1-yl)-[1,1′-biphenyl]-4-yl)cyclobutane-1-carboxamide] |  |  |  | 
6 | 0.5 (≈ 0.995 µM) | 2 (≈ 3.98 µM) | 4 (≈ 7.96 µM) | 4 (≈ 7.96 µM) | C[C@H](O)c1nccn1[C@@H](/C=C/c1ccc(-c2ccc(C3CC(NC[C@@H]4CNC(=O)O4)C3)cc2)cc1)CO (stereo partly drawn) [Compound 46, (R)-5-(((3-(4′-((S,E)-4-hydroxy-3-(2-((S)-1-hydroxyethyl)-1H-imidazol-1-yl)but-1-en-1-yl)-[1,1′-biphenyl]-4-yl)cyclobutyl)amino)methyl) oxazolidin-2-one] |  |  |  | 
7 | 2 (≈ 4.2 µM) | 4 (≈ 8.41 µM) | 4 (≈ 8.41 µM) | 4 (≈ 8.41 µM) | C[C@H](O)c1nccn1C/C=C/c1ccc(-c2ccc(OCCN3CCN(CCN)CC3)cc2)cc1 [Compound 5, (S,E)-1-(1-(3-(4′-(2-(4-(2-aminoethyl)piperazin-1-yl)ethoxy)-[1,1′-biphenyl]-4-yl)allyl)-1H-imidazol-2-yl)ethan-1-ol] |  |  |  | 
8 |  |  |  |  | C[C@H](O)c1nccn1[C@@H](/C=C/c1ccc(-c2ccc([C@H]3C[C@H](NC(=O)CS(C)(=O)=O)C3)cc2)cc1)CO [Compound 63, N-((1S,3r)-3-(4′-((S,E)-4-hydroxy-3-(2-((S)-1-hydroxyethyl)-1H-imidazol-1-yl)but-1-en-1-yl)-[1,1′-biphenyl]-4-yl)cyclobutyl)-2-(methylsulfonyl)acetamide] | 2 (≈ 3.82 µM) | 4 (≈ 7.64 µM) | 2 (≈ 3.82 µM) | 4 (≈ 7.64 µM)
9 | 1 (≈ 2.22 µM) | 2 (≈ 4.44 µM) | 4 (≈ 8.88 µM) | 4 (≈ 8.88 µM) | C[C@H](O)c1nccn1[C@@H](/C=C/c1ccc(-c2ccc(OCC3(CO)COC3)cc2)cc1)CO [Compound 68, (S,E)-2-(2-((S)-1-hydroxyethyl)-1H-imidazol-1-yl)-4-(4′-((3-(hydroxymethyl)oxetan-3-yl)methoxy)-[1,1′-biphenyl]-4-yl)but-3-en-1-ol] |  |  |  | 
10 | 2 (≈ 4.31 µM) | 8 (≈ 17.2 µM) | 4 (≈ 8.61 µM) | 4 (≈ 8.61 µM) | C[C@H](O)c1nccn1[C@@H](/C=C/c1ccc(-c2ccc(C3CC3OC(CO)CO)cc2)cc1)CO (stereo partly drawn) [Compound 70, 2-(2-(4′-((S,E)-4-hydroxy-3-(2-((S)-1-hydroxyethyl)-1H-imidazol-1-yl)but-1-en-1-yl)-[1,1′-biphenyl]-4-yl)cyclopropoxy)propane-1,3-diol] |  |  |  | 
11 | 0.25 (≈ 0.642 µM) | 0.25 (≈ 0.642 µM) | 2 (≈ 5.13 µM) | 4 (≈ 10.3 µM) | C[C@H](O)c1nccn1C/C=C/c1ccc(-c2ccc(OCC3(N)CC3)cc2)cc1 [Compound 7, (S,E)-1-(1-(3-(4′-((1-aminocyclopropyl)methoxy)-[1,1′-biphenyl]-4-yl)allyl)-1H-imidazol-2-yl)ethan-1-ol] |  |  |  | 
12 | 4 (≈ 8.67 µM) | 8 (≈ 17.3 µM) | 4 (≈ 8.67 µM) | 4 (≈ 8.67 µM) | C[C@H](O)c1nccn1[C@@H](/C=C/c1ccc(-c2ccc(C3CC(NCC(=O)O)C3)cc2)cc1)CO (stereo partly drawn) [Compound 44, (3-(4′-((S,E)-4-hydroxy-3-(2-((S)-1-hydroxyethyl)-1H-imidazol-1-yl)but-1-en-1-yl)-[1,1′-biphenyl]-4-yl)cyclobutyl)glycine] |  |  |  | 
13 | 4 (≈ 9.25 µM) | 8 (≈ 18.5 µM) | 4 (≈ 9.25 µM) | 4 (≈ 9.25 µM) | C[C@H](O)c1nccn1[C@@H](/C=C/c1ccc(-c2ccc(C3CC(C(=O)O)C3)cc2)cc1)CO (stereo partly drawn) [Compound 51, 3-(4′-((S,E)-4-hydroxy-3-(2-((S)-1-hydroxyethyl)-1H-imidazol-1-yl)but-1-en-1-yl)-[1,1′-biphenyl]-4-yl)cyclobutane-1-carboxylic acid] |  |  |  | 
14 | 2 (≈ 4.96 µM) | 16 (≈ 39.7 µM) | 2 (≈ 4.96 µM) | 2 (≈ 4.96 µM) | C[C@H](O)c1nccn1[C@@H](/C=C/c1ccc(-c2ccc(C3CC(N)C3)cc2)cc1)CO (stereo partly drawn) [Compound 48, (S,E)-4-(4′-(3-aminocyclobutyl)-[1,1′-biphenyl]-4-yl)-2-(2-((S)-1-hydroxyethyl)-1H-imidazol-1-yl)but-3-en-1-ol] |  |  |  | 
15 | 0.25 (≈ 0.543 µM) | 0.5 (≈ 1.09 µM) | 2 (≈ 4.34 µM) | 4 (≈ 8.69 µM) | C[C@H](O)c1nccn1[C@@H](/C=C/c1ccc(-c2ccc(C3CC(NCC#N)C3)cc2F)cc1)CO (stereo partly drawn) [Compound 75, 2-((3-(2-fluoro-4′-((S,E)-4-hydroxy-3-(2-((S)-1-hydroxyethyl)-1H-imidazol-1-yl)but-1-en-1-yl)-[1,1′-biphenyl]-4-yl)cyclobutyl)amino)acetonitrile] |  |  |  | 
16 | 16 (≈ 37.8 µM) | 64 (≈ 151 µM) | 4 (≈ 9.44 µM) | 2 (≈ 4.72 µM) | C[C@H](O)c1nccn1[C@@H](/C=C/c1ccc(-c2ccc(OCC(O)CN)cc2)cc1)CO (mixture of isomers) [Compound 22, (2S,E)-4-(4′-(3-amino-2-hydroxypropoxy)-[1,1′-biphenyl]-4-yl)-2-(2-((S)-1-hydroxyethyl)-1H-imidazol-1-yl)but-3-en-1-ol] |  |  |  | 
17 | 0.5 (≈ 1.15 µM) | 1 (≈ 2.3 µM) | 2 (≈ 4.6 µM) | 4 (≈ 9.21 µM) | C[C@H](O)c1nccn1[C@@H](/C=C/c1ccc(-c2ccc(O[C@@H]3CCC[C@H]3O)cc2)cc1)CO [Compound 73, (1R,2R)-2-((4′-((S,E)-4-hydroxy-3-(2-((S)-1-hydroxyethyl)-1H-imidazol-1-yl)but-1-en-1-yl)-[1,1′-biphenyl]-4-yl)oxy)cyclopentan-1-ol] |  |  |  | 
18 | 0.5 (≈ 1.15 µM) | 0.5 (≈ 1.15 µM) | 2 (≈ 4.6 µM) | 4 (≈ 9.21 µM) | C[C@H](O)c1nccn1[C@@H](/C=C/c1ccc(-c2ccc([C@@H]3C[C@H]3OCCO)cc2)cc1)CO [Compound 71, (S,E)-4-(4′-((1S,2R)-2-(2-hydroxyethoxy)cyclopropyl)-[1,1′-biphenyl]-4-yl)-2-(2-((S)-1-hydroxyethyl)-1H-imidazol-1-yl)but-3-en-1-ol] |  |  |  | 
19 |  |  |  |  | C[C@H](O)c1nccn1[C@@H](/C=C/c1ccc(-c2ccc([C@H]3C[C@H](NC(=O)CN(C)C)C3)cc2)cc1)CO [Compound 66, 2-(dimethylamino)-N-((1S,3r)-3-(4′-((S,E)-4-hydroxy-3-(2-((S)-1-hydroxyethyl)-1H-imidazol-1-yl)but-1-en-1-yl)-[1,1′-biphenyl]-4-yl)cyclobutyl)acetamide] | 4 (≈ 8.19 µM) | 8 (≈ 16.4 µM) | 4 (≈ 8.19 µM) | 4 (≈ 8.19 µM)

Row | Structure (SMILES) | MIC (E. coli ATCC25922; [5]) [µg/mL] | MIC (K. pneumoniae ATCC13883; [6]) [µg/mL] | MIC (P. aeruginosa 209 PAO1; [7]) [µg/mL] | MIC (P. aeruginosa ATCC27835; [8]) [µg/mL] | MIC (E. coli ATCC25922; [1]) [µg/mL] | MIC (K. pneumoniae ATCC13883; [2]) [µg/mL] | MIC (P. aeruginosa 209 PAO1; [3]) [µg/mL] | MIC (P. aeruginosa ATCC27835; [4]) [µg/mL]
20 | C[C@H](O)c1nccn1[C@@H](/C=C/c1ccc(-c2ccc(O[C@H]3C[C@@H]3N)cc2)cc1)CO (racemic) [Compound 13, (S,E)-4-(4′-((trans)-2-aminocyclopropoxy)-[1,1′-biphenyl]-4-yl)-2-(2-((S)-1-hydroxyethyl)-1H-imidazol-1-yl)but-3-en-1-ol] | 4 (≈ 9.86 µM) | 4 (≈ 9.86 µM) | 2 (≈ 4.93 µM) | 16 (≈ 39.5 µM) |  |  |  | 
